# Data taken from BindingDB's records for patent US9120808 (Nabriva Therapeutics, 2015).
# “And” between values parts separate entries of the source, which are not always exact repeats. Identical values can stand only once.
# Molecular target: Beta-lactamase (Escherichia coli (strain K12), UniProt P00811)
# Experiment: Cell Free Inhibition Assay
# Details: pH 7; 37 °C
# Protocol: (§1) Assays are performed with beta -lactamases expressed in the pET system (Novagen, San Diego, Calif.) without signal peptides. They contain an N-terminal hexa-Histidine tag that is used for purification on Ni-NTA (Qiagen, Hilden, Germany). The compounds are prepared as 50 mM stocks in DMSO and diluted into buffer P1 (50 mM phosphate, pH 7) to a final concentration of 10% DMSO. All further dilutions are done in P2 (P1 with 10% DMSO). Enzyme and compound dilutions are pre-incubated for 10 min at 37 C. and the reaction is started with the addition of pre-warmed (37 C.) […]. The change in absorption at 490 nm is followed at 37 C. for 10 min with 30 s intervals.
# Sequence of Beta-lactamase (P00811 whole entry): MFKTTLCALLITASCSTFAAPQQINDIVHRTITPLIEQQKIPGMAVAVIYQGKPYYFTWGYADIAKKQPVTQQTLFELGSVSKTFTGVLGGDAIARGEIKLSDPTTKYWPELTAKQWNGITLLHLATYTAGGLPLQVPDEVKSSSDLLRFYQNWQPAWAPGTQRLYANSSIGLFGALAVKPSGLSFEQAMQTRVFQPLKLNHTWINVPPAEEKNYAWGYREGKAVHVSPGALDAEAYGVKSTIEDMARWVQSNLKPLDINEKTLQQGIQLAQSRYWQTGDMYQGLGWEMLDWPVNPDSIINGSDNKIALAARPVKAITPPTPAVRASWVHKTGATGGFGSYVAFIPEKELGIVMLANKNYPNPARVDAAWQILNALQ
row,SMILES,IC50
1,"C=CCC1(C(=O)OC)C(=CC=O)O[C@@H]2CC(=O)N21 (some centres not stated) [US9120808, Example 17]",36 µM
2,"C=CCC(C=O)=C1O[C@@H]2CC(=O)N2C1C(=O)OC (some centres not stated) [US9120808, Example 16]",0.941 µM
3,"CCCC(C(=O)O)=C1O[C@@H]2CC(=O)N2C1C(=O)OC (some centres not stated) [US9120808, Example 54]",3.42 µM
4,"O=C(OCc1ccccc1)C1C(=C2COC(CI)C2)O[C@@H]2CC(=O)N12 (some centres not stated) [US9120808, Example 59]",6.45 µM
5,"C=CCC(C(=O)O)=C1O[C@@H]2CC(=O)N2C1C(=O)OC (some centres not stated) [US9120808, Example 32]",2.86 µM
6,"C=CCC(C(=O)O)=C1O[C@@H]2CC(=O)N2C1C(=O)OCc1ccccc1 (some centres not stated) [US9120808, Example 24]",4.98 µM
7,"COC(=O)C1C(=C(CCCc2ccccc2)C(=O)O)O[C@@H]2CC(=O)N12 (some centres not stated) [US9120808, Example 53]",0.541 µM
8,"C=CCC1(C(=O)OCc2ccccc2)C(=CC=O)O[C@@H]2CC(=O)N21 (some centres not stated) [US9120808, Example 2]",58.8 µM
9,"CC1CC(=C2O[C@@H]3CC(=O)N3C2C(=O)O)C(=O)O1 (some centres not stated) [US9120808, Example 50]",27 µM
10,"COC(=O)C(CCCc1ccccc1)=C1O[C@@H]2CC(=O)N2C1C(=O)OC (some centres not stated) [US9120808, Example 57]",5.33 µM
11,"CCCC(C(=O)O)=C1O[C@@H]2CC(=O)N2C1C(=O)O (some centres not stated) [US9120808, Example 51]",415 µM
12,"O=CC=C1O[C@@H]2CC(=O)N2C1(CC=CCO)C(=O)OCc1ccccc1 (single isomer, unassigned) [US9120808, Example 9]",115 µM and 14.3 µM
13,"O=C1OC(CI)CC1=C1O[C@@H]2CC(=O)N2C1C(=O)OCc1ccccc1 (single isomer, unassigned) [US9120808, Example 42]",0.285 µM and 0.385 µM
14,"COC(=O)C1(C/C=C/c2ccccc2)C(=CC(=O)O)O[C@@H]2CC(=O)N21 (single isomer, unassigned) [US9120808, Example 36]",41.1 µM and 4.19 µM
15,"C=CCC(C=O)=C1O[C@@H]2CC(=O)N2C1(CC=C)C(=O)OCc1ccccc1 (some centres not stated) [US9120808, Example 3]",95.1 µM
16,"CC(=O)OCC=CCC(C=O)=C1O[C@@H]2CC(=O)N2C1C(=O)OCc1ccccc1 (some centres not stated) [US9120808, Example 10]",16 µM
17,"O=C(O)C(CC=CCN(Cc1ccccc1)C(=O)OCc1ccccc1)=C1O[C@@H]2CC(=O)N2C1C(=O)OCc1ccccc1 (some centres not stated) [US9120808, Example 58]",4.51 µM
18,"C=CCC(C=O)=C1O[C@@H]2CC(=O)N2C1C(=O)OCc1ccccc1 (some centres not stated) [US9120808, Example 1]",10.4 µM
19,"O=C(O)C=C1O[C@@H]2CC(=O)N2C1(C/C=C/c1ccccc1)C(=O)OCc1ccccc1 (single isomer, unassigned) [US9120808, Example 28]",6.02 µM and 11.7 µM
20,"O=CC(CC=CCO)=C1O[C@@H]2CC(=O)N2C1C(=O)OCc1ccccc1 (some centres not stated) [US9120808, Example 7]",5.38 µM

# Molecular target: Beta-lactamase TEM (Escherichia coli, UniProt P62593)
# Experiment: Cell Free Inhibition Assay
# Details: pH 7; 37 °C
# Protocol: as §1
# Sequence of Beta-lactamase TEM (P62593 whole entry): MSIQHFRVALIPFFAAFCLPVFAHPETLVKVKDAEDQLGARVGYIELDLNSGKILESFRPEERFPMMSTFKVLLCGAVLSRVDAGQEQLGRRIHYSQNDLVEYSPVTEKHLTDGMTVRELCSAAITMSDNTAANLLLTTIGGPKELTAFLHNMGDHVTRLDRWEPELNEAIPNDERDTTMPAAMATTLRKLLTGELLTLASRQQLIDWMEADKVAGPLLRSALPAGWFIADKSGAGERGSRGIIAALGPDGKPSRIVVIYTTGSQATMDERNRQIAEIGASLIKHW
row,SMILES,IC50 [µM]
1,"CCCC(CO)=C1O[C@@H]2CC(=O)N2C1C(=O)O (some centres not stated) [US9120808, Example 55]",118
2,"CCCC1(C(=O)O)/C(=C/CO)O[C@@H]2CC(=O)N21 (some centres not stated) [US9120808, Example 56]",17.8
